Reference: patent US20220220152A1, “BIVALENT ANTAGONISTS OF INHIBITORS OF APOPTOSIS PROTEINS” (Hepagene Therapeutics (HK) Limited, priority 2019, published 2022)

Assays:
cIAP1-BIR3 = target: T1, cIAP1-BIR3 (Homo sapiens, UniProt Q13490); experiment: cIAP1-BIR3 fluorescence polarization binding assay; conditions: FP, probe AbuRPFK-5FAM (SM5F) 5 nM, cIAP1-BIR3 15 nM, 60 min at 25° C.
T1 construct: cIAP1-BIR3; purchased Reaction Biology APT-11-370
Method in brief: (§1)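 Fluorescence polarization competition using 5-carboxyfluorescein-labelled peptide probe AbuRPFK-5FAM; protein and compound preincubated 15 min, probe added, then 60 min at 25° C.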

XIAP-BIR3 = target: T2, XIAP-BIR3 (Homo sapiens, UniProt P98170); experiment: XIAP-BIR3 fluorescence polarization binding assay; conditions: FP, probe AbuRPFK-5FAM (SM5F) 5 nM, XIAP-BIR3 40 nM, 60 min at 25° C.
T2 construct: XIAP-BIR3; purchased Reaction Biology APT-11-374
T2 sequence (P98170 241-356 limits assumed): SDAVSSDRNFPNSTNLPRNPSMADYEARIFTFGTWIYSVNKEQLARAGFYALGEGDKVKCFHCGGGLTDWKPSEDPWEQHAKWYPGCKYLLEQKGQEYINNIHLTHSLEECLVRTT
Method in brief: as §1

cIAP2-BIR3 = target: T3, cIAP2-BIR3 (Homo sapiens, UniProt Q13489); experiment: cIAP2-BIR3 fluorescence polarization binding assay; conditions: FP, probe AbuRPFK-5FAM (SM5F) 5 nM, cIAP2-BIR3 80 nM, 60 min at 25° C.
T3 construct: cIAP2-BIR3; purchased Reaction Biology APT-11-372
T3 sequence (Q13489 238-349 limits assumed): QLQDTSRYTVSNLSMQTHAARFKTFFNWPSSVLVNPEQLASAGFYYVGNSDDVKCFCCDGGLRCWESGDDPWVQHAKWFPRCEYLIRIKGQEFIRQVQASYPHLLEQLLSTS
Method in brief: as §1

T1 sequence (Q13490 253-363 limits assumed): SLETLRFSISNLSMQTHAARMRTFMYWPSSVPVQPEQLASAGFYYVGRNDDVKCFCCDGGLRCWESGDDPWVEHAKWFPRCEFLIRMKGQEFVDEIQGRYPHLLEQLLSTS

Q: How did the IC50 (cIAP1-BIR3) turn out when CN[C@@H](C)C(=O)N[C@H](C(=O)N1CCC[C@H]1C(=O)N[C@@H]1CCCc2c(OCCOCCOc3cccc4c3CCC[C@H]4NC(=O)[C@@H]3CCCN3C(=O)[C@@H](NC(=O)[C@H](C)NC)C3CCCCC3)cccc21)C1CCCCC1 [Compound II, (2S)-1-[(2S)-2-Cyclohexyl-2-[(2S)-2-(methylamino)propanamido]acetyl]-N-[(1R)-5-[2-(2-[[(5R)-5-[(2S)-1-[(2S)-2-cyclohexyl-2-[(2S)-2-(methylamino)propanamido]acetyl]pyrrolidine-2-amido]-5,6,7,8-tetrahydronaphthalen-1-yl]oxy]ethoxy)ethoxy]-1,2,3,4-tetrahydmnaphthalen-1-yl]pyrrolidine-2-carboxamide] was run?
A: 1 to 10 nM

Q: What about the IC50 (XIAP-BIR3) of the same compound?
A: 10 to 100 nM

Q: What about the IC50 (cIAP2-BIR3) of the same compound?
A: 1 to 10 nM

Q: CN[C@@H](C)C(=O)N[C@H](C(=O)N1CCC[C@H]1C(=O)N[C@@H]1CCCc2cc(OCCOCCOc3ccc4c(c3)CCC[C@H]4NC(=O)[C@@H]3CCCN3C(=O)[C@@H](NC(=O)[C@H](C)NC)C3CCCCC3)ccc21)C1CCCCC1 [Compound II-D, (2S)-1-[(2S)-2-cyclohexyl-2-[(2S)-2-(methylamino)propanamido]acetyl]-N-[(1R)-6-[2-(2-[[(5R)-5-[(2S)-1-1(2S)-2-cyclohexyl-2-[(2S)-2-(methylamino)propanamido]acetyl]pyrrolidine-2-amido]-5,6,7,8-tetrahydronaphthalen-2-yl]oxy]ethoxy)ethoxyl-1,2,3,4-tetrahydronaphthalen-1-yl]pyrrolidine-2-carboxamide Formic Acid] was tested. Which IC50 (cIAP1-BIR3) did it give?
A: 1 to 10 nM

Q: And the IC50 (XIAP-BIR3)?
A: > 1000 nM

Q: And the IC50 (cIAP2-BIR3)?
A: 10 to 100 nM

Q: What does the source list for CN[C@@H](C)C(=O)N[C@H](C(=O)N1C[C@@H](O)C[C@H]1C(=O)N[C@@H]1CCCc2c(-c3ccc(-c4cccc5c4CCC[C@H]5NC(=O)[C@@H]4C[C@H](O)CN4C(=O)[C@@H](NC(=O)[C@H](C)NC)C4CCCCC4)cc3)cccc21)C1CCCCC1 [Compound III-K, (2S,4S)-1-[(2S)-2-cyclohexyl-2-[(2S)-2-(methylamino)propanamido]acetyl]-N-[(1R)-5-[4-[(5R)-5-[(2S,4S)-1-[(2S)-2-cyclohexyl-2-[(2S)-2-(methylamino)propanamido]acetyl]-4-hydroxypyrrolidine-2-amido]-5,6,7,8-tetrahydmnaphthalen-1-yl]phenyl]-1,2,3,4-tetrahydronaphthalen-1-yl]-4-hydroxypyrrolidine-2-carboxamide]?
A: IC50 (cIAP1-BIR3): 1 to 10 nM; IC50 (XIAP-BIR3): 10 to 100 nM; IC50 (cIAP2-BIR3): 1 to 10 nM

Q: What does the source list for CN[C@@H](C)C(=O)N[C@H](C(=O)N1CCC[C@H]1C(=O)N[C@@H]1CCCc2c(-c3ccc(-c4cccc5c4CCC[C@H]5NC(=O)[C@@H]4CCCN4C(=O)[C@@H](NC(=O)[C@H](C)NC)C(C)C)cc3)cccc21)C(C)C [III-N, (2S)-1-[(2S)-3-methyl-2-[(2S)-2-(methylamino)propanamido]butanoyl]-N-[(1R)-5-[4-[(5R)-5-[(2S)-1-[(2S)-3-methyl-2-[(2S)-2-(methylamino)propanamido]butanoyl]pyrolidine-2-amido]-5,6,7,8-tetrahydronaphthalen-1-yl]phenyl]-1,2,3,4-tetrahydronaphthalen-1-yl]pyrrolidine-2-carboxamide]?
A: IC50 (cIAP1-BIR3): 1 to 10 nM; IC50 (XIAP-BIR3): 10 to 100 nM; IC50 (cIAP2-BIR3): 10 to 100 nM

Q: Which results are given for CN[C@@H](C)C(=O)N[C@@H](C)C(=O)N1CCC[C@H]1C(=O)N[C@@H]1CCCc2c(-c3cccc(-c4cccc5c4CCC[C@H]5NC(=O)[C@@H]4CCCN4C(=O)[C@H](C)NC(=O)[C@H](C)NC)c3)cccc21 [Compound III-C, (2S)-1-[(2S)-2-[(2S)-2-(methylamino)propanamido]propanoyl]-N-[(1R)-5-[3-[(5R)-5-[(2S)-1-[(2S)-2-[(2S)-2-(methylamino)propanamido]propanoyl]pyrrolidine-2-amido]-5,6,7,8-tetrahydmnaphthalen-1-yl]phenyl]-1,2,3,4-tetrahydmnaphthalen-1-yl]pyrrolidine-2-carboxamide]?
A: IC50 (cIAP1-BIR3): 1 to 10 nM; IC50 (XIAP-BIR3): 1 to 10 nM; IC50 (cIAP2-BIR3): 1 to 10 nM

Q: CN[C@@H](C)C(=O)NC(C(=O)N1CCC[C@H]1C(=O)N[C@@H]1CCCc2cc(N3CCN(c4ccc5c(c4)CCC[C@H]5NC(=O)[C@@H]4CCCN4C(=O)[C@@H](NC(=O)[C@H](C)NC)C4CCCCC4)CC3)ccc21)C1CCCCC1 (stereo partly drawn) [VIII-B, (2S)-1-[(2S)-2-cyclohexyl-2-[(2S)-2-(methylamino)propanamido]acetyl]-N-[1(1R)-6-[4-[(5R)-5-[(2S)-1-[(2S)-2-cyclohexyl-2-[(2S)-2-(methylamino)propanamido]acetyl]pyrrolidine-2-amido]-5,6,7,8-tetrahydronaphthalen-2-yl]piperazin-1-yl]-1,2,3,4-tetrahydronaphthalen-1-yl]pyrrolidine-2-carboxamide] was tested. Which IC50 (cIAP1-BIR3) did it give?
A: 10 to 100 nM

Q: And the IC50 (XIAP-BIR3)?
A: > 1000 nM

Q: What about the IC50 (cIAP2-BIR3) of the same compound?
A: 100 to 1000 nM

Q: CN[C@@H](C)C(=O)N[C@H](C(=O)N1CCC[C@H]1C(=O)N[C@@H]1CCCc2c(OCCc3ccc(CCOc4cccc5c4CCC[C@H]5NC(=O)[C@@H]4CCCN4C(=O)[C@@H](NC(=O)[C@H](C)NC)C4CCCCC4)cc3)cccc21)C1CCCCC1 [Compound I, (2S)-1-[(2S)-2-Cyclohexyl-2-[(2S)-2-(methylamino)propanamido]acetyl]-N-[(1R)-5-[2-[4-(2-[[(5R)-5-[(2S)-1-[(2S)-2-cyclohexyl-2-[(2S)-2-(methylamino)propanamido]acetyl]pyrrolidine-2-amido]-5,6,7,8-tetrahydronaphthalen-1-yl]oxy]ethyl)phenyl]ethoxy]-1,2,3,4-tetrahydmnaphthalen-1-yl]pyrrolidine-2-carboxamide] was tested. Which IC50 (cIAP1-BIR3) did it give?
A: 1 to 10 nM

Q: And the IC50 (XIAP-BIR3)?
A: 10 to 100 nM

Q: And the IC50 (cIAP2-BIR3)?
A: 10 to 100 nM

Q: Which IC50 (cIAP1-BIR3) does the source give for CC[C@H](NC(=O)[C@H](C)NC)C(=O)N1CCC[C@H]1C(=O)N[C@@H]1CCc2c(-c3cccc4c3CC[C@H]4NC(=O)[C@@H]3CCCN3C(=O)[C@H](CC)NC(=O)[C@H](C)NC)cccc21 [Compound V-O, (2S,2'S)—N,N′-((1R,1′R)-2,2′,3,3′-tetrahydro-1H,1′H-[4,4′-biindene]-1,1′-diyl)bis(1-((S)-2-((S)-2-(methylamino)propanamido)butanoyl)pyrrolidine-2-carboxamide)] here?
A: 1 to 10 nM

Q: What about the IC50 (XIAP-BIR3) of the same compound?
A: 10 to 100 nM

Q: And the IC50 (cIAP2-BIR3)?
A: 10 to 100 nM

Q: How did the IC50 (cIAP1-BIR3) turn out when CN[C@@H](C)C(=O)N[C@H](C(=O)N1CCC[C@H]1C(=O)N[C@@H]1CCCc2c(-c3ccc(-c4cccc5c4CCC[C@H]5NC(=O)[C@@H]4CCCN4C(=O)[C@@H](NC(=O)[C@H](C)NC)C(C)(C)C)cc3)cccc21)C(C)(C)C [Compound III-J, (2S)-1-[(2S)-3,3-dimethyl-2-[(2S)-2-(methylamino)propanamido]butanoyl]-N-[(1R)-5-[4-[(5R)-5-[(2S)-[-(2S)-3,3-dimethyl-2-[(2S)-2-(methylamino)propanamido]butanoyl]pyrrolidine-2-amido]-5,6,7,8-tetrahydronaphthalen-1-yl]phenyl]-1,2,3,4-tetrahydronaphthalen-1-yl]pyrrolidine-2-carboxamide] was run?
A: 1 to 10 nM

Q: And the IC50 (XIAP-BIR3)?
A: 10 to 100 nM

Q: What about the IC50 (cIAP2-BIR3) of the same compound?
A: 1 to 10 nM

Q: Which IC50 (cIAP1-BIR3) does the source give for CN[C@@H](C)C(=O)N[C@H](C(=O)N1CCC[C@H]1C(=O)N[C@@H]1CCCc2c(OCCN3CCN(CCOc4cccc5c4CCC[C@H]5NC(=O)[C@@H]4CCCN4C(=O)[C@@H](NC(=O)[C@H](C)NC)C4CCCCC4)CC3)cccc21)C1CCCCC1 [Compound IX, (2S)-1-[(2S)-2-cyclohexyl-2-[(2S)-2-(methylamino)propanamido]acetyl]-N-[(1R)-5-{2-[4-(2-{[(5R)-5-[(2S)-1-[(2S)-2-cyclohexyl-2-[(2S)-2-(methylamino)propanamido]acetyl]pyrolidine-2-amido]-5,6,7,8-tetrahydronaphthalen-1-yl]oxy}ethyl)piperazin-1-yl]ethoxy}-1,2,3,4-tetrahydmnaphthalen-1-yl]pyrrolidine-2-carboxamide] here?
A: 1 to 10 nM

Q: And the IC50 (XIAP-BIR3)?
A: 100 to 1000 nM

Q: What about the IC50 (cIAP2-BIR3) of the same compound?
A: 10 to 100 nM

Q: Which IC50 (cIAP1-BIR3) does the source give for CN[C@@H](C)C(=O)N[C@H](C(=O)N1CCC[C@H]1C(=O)N[C@@H]1CCCc2c(OCCOCCOc3cccc4c3CCC[C@H]4NC(=O)[C@@H]3CCCN3C(=O)[C@@H](NC(=O)[C@H](C)NC)C3CCOCC3)cccc21)C1CCOCC1 [Compound II-B, (2S)-1-[(2S)-2-[(2S)-2-(Methylamino)propanamido]-2-(oxan-4-yl)acetyl]-N-[(1R)-5-[2-(2-{[(5R)-5-[(2S)-1-[(2S)-2-[(2S)-2-(methylamino)propanamido]-2-(oxan-4-yl)acetyl]pyrrolidine-2-amido]-5,6,7,8-tetrahydronaphthalen-1-yl]oxy}ethoxy)ethoxy]-1,2,3,4-tetrahydronaphthalen-1-yl]pyrrolidine-2-carboxamide] here?
A: 1 to 10 nM

Q: And the IC50 (XIAP-BIR3)?
A: 10 to 100 nM

Q: What about the IC50 (cIAP2-BIR3) of the same compound?
A: 10 to 100 nM

Q: Which results are given for CN[C@@H](C)C(=O)N[C@H](C(=O)N1CCC[C@H]1C(=O)N[C@@H]1CCCc2c(OCc3ccc(COc4cccc5c4CCC[C@H]5NC(=O)[C@@H]4CCCN4C(=O)[C@@H](NC(=O)[C@H](C)NC)C4CCCCC4)cc3)cccc21)C1CCCCC1 [Compound I-F, (2S)-1-[(2S)-2-cyclohexyl-2-[(2S)-2-(methylamino)propanamido]acetyl]-N-[(1R)-5-[[4-([[(5R)-5-[(2S)-1-[(2S)-2-cyclohexyl-2-[(2S)-2-(methylamino)propanamido]acetyl]pyrolidine-2-amido]-5,6,7,8-tetrahydronaphthalen-1-yl]oxy]methyl)phenyl]methoxy]-1,2,3,4-tetrahydronaphthalen-1-yl]pyrrolidine-2-carboxamide]?
A: IC50 (cIAP1-BIR3): 1 to 10 nM; IC50 (XIAP-BIR3): 100 to 1000 nM; IC50 (cIAP2-BIR3): 100 to 1000 nM
